Test: Inhibition of HCV RNA replication in Huh7 cells

EC50 [nM] | Compound
389 | O=c1c(C2=Nc3ccccc3S(=O)(=O)N2)c(O)c2ccccc2n1Cc1ccoc1 [3-(1,1-dioxo-1,4-dihydrobenzo[1,2,4]thiadiazin-3-yl)-1-furan-3-ylmethyl-4-hydroxy-1H-quinolin-2-one]
511 | CC(C)CCn1c(=O)c(C2=Nc3ccccc3S(=O)(=O)N2)c(O)c2cc(OCC(N)=O)ccc21 [4-[3-(1,1-dioxo-1,4-dihydrobenzo[1,2,4]thiadiazin-3-yl)-4-hydroxy-1-(3-methylbutyl)-2-oxo-1,2-dihydroquinolin-6-yloxy]acetamide]
298 | CC(C)CCn1c(=O)c(C2=Nc3ccccc3S(=O)(=O)N2)c(O)c2cc(OCC#N)ccc21 [4-[3-(1,1-dioxo-1,4-dihydrobenzo[1,2,4]thiadiazin-3-yl)-4-hydroxy-1-(3-methylbutyl)-2-oxo-1,2-dihydroquinolin-6-yloxy]acetonitrile]
157 | Nc1ccc2c(c1)c(O)c(C1=Nc3ccccc3S(=O)(=O)N1)c(=O)n2CCC1CC1 [6-Amino-1-(2-cyclopropylethyl)-3-(1,1-dioxo-1,4-dihydrobenzo[1,2,4]thiadiazin-3-]
274 | CC(C)CCn1c(=O)c(C2=Nc3ccccc3S(=O)(=O)N2)c(O)c2cc(N)ccc21 [6-amino-3-(1,1-dioxo-1,2-dihydrobenzo[1,2,4]thiadiazin-3-yl)-4-hydroxy-1-(3-methylbutyl)-1H-quinolin-2-one]
1200 | CC(C)CCn1c(=O)c(C2=Nc3ccccc3S(=O)(=O)N2)c(O)c2cc(Cl)ccc21 [6-chloro-3-(1,1-dioxo-1,2-dihydrobenzo[1,2,4]thiadiazin-3-yl)-4-hydroxy-1-(3-methylbutyl)-1H-quinolin-2-one]
265 | CCOC(=O)CNc1ccc2c(c1)c(O)c(C1=Nc3ccccc3S(=O)(=O)N1)c(=O)n2CCC(C)C [[3-(1,1-dioxo-1,4-dihydrobenzo[1,2,4]thiadiazin-3-yl)-4-hydroxy-1-(3-methylbutyl)-1H-dihydroquinolin-6-ylamino]acetic acid ethyl ester]
2490 | CC(C)CCn1c(=O)c(C2=Nc3ccccc3S(=O)(=O)N2)c(O)c2cc(NCC(=O)O)ccc21 [[3-(1,1-dioxo-1,4-dihydrobenzo[1,2,4]thiadiazin-3-yl)-4-hydroxy-1-(3-methylbutyl)-1H-dihydroquinolin-6-ylamino]acetic acid]

The next lines start with the compound.

Compound | EC50 [nM]
CC(C)CCn1c(=O)c(C2=Nc3ccccc3S(=O)(=O)N2)c(O)c2ccccc21 | 417
O=c1c(C2=Nc3ccccc3S(=O)(=O)N2)c(O)c2ccccc2n1CCC1CC1 [1-(2-cyclopropylethyl)-3-(1,1-dioxo-1,4-dihydro-1-benzo[1,2,4]-thiadiazin-3-yl)-4-hydroxy-1H-quinolin-2-one] | 152
CCCCn1c(=O)c(C2=NS(=O)(=O)c3ccccc3N2)c(O)c2ccccc21 [1-Butyl-3-(1,1-dioxo-1,4-dihydro-1lambda*6*-benzo[1,2,4]thiadiazin-3-yl)-4-hydroxy-1H-quinolin-2-one] | 444
O=c1c(C2=Nc3ccccc3S(=O)(=O)N2)c(O)c2ccccc2n1CC1CCC1 [1-cyclobutylmethyl-3-(1,1-dioxo-1,2-dihydrobenzo[1,2,4]thiadiazin-3-yl)-4-hydroxy-1-1H-quinolin-2-one] | 241
O=c1c(C2=Nc3ccccc3S(=O)(=O)N2)c(O)c2ccccc2n1-c1ccccc1 [3-(1,1-dioxo-1,2-dihydrobenzo[1,2,4]thiadiazin-3-yl)-4-hydroxy-1-phenyl-1Hquinolin-2-one] | 774
Cc1ccc2c(c1)c(O)c(C1=Nc3ccccc3S(=O)(=O)N1)c(=O)n2CCC(C)C [3-(1,1-dioxo-1,2-dihydrobenzo[1,2,4]thiadiazin-3-yl)-4-hydroxy-6-methyl-1-(3-methylbutyl)-1H-quinolin-2-one] | 180
CC(C)CCn1c(=O)c(C2=Nc3ccccc3S(=O)(=O)N2)c(O)c2c(F)cccc21 [3-(1,1-dioxo-1,2-dihydrobenzo[1,2,4]thiadiazin-3-yl)-5-fluoro-4-hydroxy-1-(3-methylbutyl)-1H-quinolin-2-one] | 381
CC(C)CCn1c(=O)c(C2=Nc3ccccc3S(=O)(=O)N2)c(O)c2cc(F)ccc21 [3-(1,1-dioxo-1,4-dihydro-1lambda*6*-benzo[1,2,4]thiadiazin-3-yl)-6-fluoro-4-hydroxy-1-(3-methyl-butyl)-1H-quinolin-2-one] | 261
